Test results reported in US12102685B2, “Immodulator peptides covalently modified with small molecules” (priority 2020, dated 2024).
Marks after values point to notes of the source that are not given here. Peptide text beside a SMILES is read from it.

What was measured:
[1] = Binding to heparin-agarose spin column (x3D); conditions: 1 ug SA488-labelled peptide
Method: 1 ug Streptavidin-Alexa 488 conjugate (SA488)-labelled IM peptide in PBS buffer was loaded on a spin column packed with 0.2 ml bed volume heparin-agarose (G-Biosciences, St. Louis, MO). The column was centrifuged for 2 min at 2,000 G and the flow-through was collected. The column was then washed with 0.3 ml 1% BSA in PBS buffer and the column spin repeated. Flowthrough and wash were pooled and duplicate 20 uL aliquots counted in a standard fluorometer (excitation/emission 485/525 nm). Results are expressed as percentage of input counts that bound the heparin-agarose column, versus flowthrough. Percent counts bound to heparin-agarose resin are shown below. IM3, IM5 and IM6 peptides bind heparin-agarose in this assay.

[2] = Binding to Echelon PPI Arrays (x9B); set-up: key: 0=no binding; 1=low binding; 2=medium binding; 3=high binding; conditions: 100 pmol PPI spot, colorimetric readout
Excerpt: Binding of immodulator peptides to Echelon PPI Arrays. PPI arrays were purchased from Echelon Biosciences (Sal Lake City, UT) and used according to the manufacturer's recommendations. Colorimetric readout from each 100 pmol PPI spot in the array is expressed as 0=no binding, 1=low binding, 2=medium binding and 3=high binding. […] In addition, IM3 and IM5 show slight binding to PI(3,4,5)P3.

[3] = Strength of binding to iron, plate assay (x2E b); conditions: 1 ug/well peptide complexed to Alexa-488-streptavidin; ferric iron
How it was run: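 Streptavidin-Alexa-488-complexed peptides, some C-terminally extended by three amino acids, were added at 1 ug/well in PBS to ferric iron-charged NTA-coated plates for 60 min at room temperature. Plates were washed and read by fluorescence (485/525 nm).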

[4] = Iron-binding competition assay with labeled IM3 (x2E c); conditions: 375 ng/well labeled IM3 plus 10x unlabeled peptide; no competing peptide = 100
Method: Experiments were conducted by the procedure described above. Ferric iron-charged NTA-coated 96-well plates were used as described. 1 ug/well immodulator peptide complexed to Alexa-488-labeled streptavidin in PBS buffer was added (60 min at room temperature). The plate was washed and counted in a standard fluorometer (excitation/emission: 485/525 nm). The results (fluorescence) show improved iron-binding by the three peptides extended C-terminally by the AVD, (dA)VD, and FVS tripeptides. **p<0.01 vs IM3 control IM3: 200±29; IM4: 45±37**; IM5: 130±77; IM3AVD: 434±29**; IM3dAVD: 418±28**; IM3FVS: 371±33** • (c) Competition assay. The same procedure was used as the preceding experiment, except that 375 ng/well labeled IM3 peptide was used, plus 10× of the indicated unlabeled peptide. ‘No competing peptide’ control value was set to 100. *p<0.05 vs “no peptide” control Competing Peptide/Fluorescence • None: 100±38; IM4: 125±26; IM3: 63±27*; IM5: 40±14*; IM3AVD: 10±28* • (d) Competition assay. The same procedure was used as the preceding experiment, except that labeled IM3AVD peptide was used. **p<0.01 vs “no competing peptide” control • None: 100±9; IM4: 144±44; IM3: 35±16**; IM5: 30±19**; IM3AVD: 9±19** • (e) The same procedure was used as the preceding experiment, except that each peptide was labeled with Alexa-488-labeled streptavidin in PBS buffer and used separately. Binding to IM3 was set to =100. *p<0.05, **p<0.01 vs IM3 control. (Labeled Peptide/Fluorescence) IM1: 1.8±0.4**; IM2: 3.0±1.8**; IM3: 100.0±16.8; IM4: 7.2±1.7*; IM5: 86.7±6.4; IM6: 85.9±14.9; IM3AVD:137.7±11.8*; IM3dAVD:147.4±22.9*; IM3FVS: 101.5±10.5.

[5] = Iron binding of separately labeled peptides (x2E e); conditions: each peptide labeled separately; IM3 = 100; ferric iron
How it was run: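 Fe3+-charged NTA-coated plates were incubated 60 min at room temperature with peptide complexed to Alexa-488-streptavidin in PBS, and fluorescence was read at 485/525 nm. Competition used 375 ng/well labeled IM3 (c) or IM3AVD (d) plus 10× unlabeled competitor, with no-competitor set to 100. Separately labeled peptides (e) were normalized to IM3 = 100.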

[6] = Alexa488-SA-labelled IM1-IM6 binding to metal-charged NTA-coated plate (x2B d); conditions: no peptide background = 1.0
Method: NTA-metal-affinity fluorescence assay was performed using 96-well NTA-metal-coated plates readily available from commercial sources such as Qiagen (Germantown, MD). NTA was charged with ferrous or ferric iron, zinc, copper, calcium, vanadium, ruthenium, cobalt, titanium, manganese or other metals. 400 ng of FITC-labeled immodulator peptide (or biotinylated immodulator peptide complexed to Alexa-488-labeled streptavidin) in PBS buffer was added per plate. After incubation at room temperature for 60 minutes, excess peptide was washed off and peptide was detected by measuring fluorescence (excitation 490 nm, emmission 525 nm) in a fluorometer. • (a) Using FITC-labeled IM3 peptide (1 ug/well) in the fluorescent binding assay: • EDTA-treated control: 2,251±1,186 • Ferrous iron: 170,441±11,264 (p<0.001)* • Copper: 13,644±5566 (p<0.05)* • Calcium: 48,822±11,990 (p<0.01)* • *p values are relative to EDTA-treated control • (b) Competition binding assay to ferrous iron, calcium, copper and zinc-charged NTA-coated plates using FITC-labeled IM3 peptide (0.5 uM) and 8× (4 uM) unlabelled competitor peptides IM3N1, IM3N2 (*all comparisons to PBS control are p<0.01); # fluorescent value of binding to […] was set at 100.
Ferrous iron # (100±2.6*); Control (no metal): 6.4±3.1; Ferric iron: 94.1±6.6*; Calcium: 47.6±3.7*; Vanadium: 53.9±5.5*; Manganese: 54.4±11.2*; Cobalt: 25.4±2.3*; Copper: 58.4±6.4*; Zinc: 71.4±8.3*; Ruthenium: 67.8±8.3*; (d) Alexa488-SA-labelled immodulator peptide IM1, IM2, IM3, IM4, IM5, IM6 (400 ng/well) were bound to NTA-coated plate charged with the indicated metals: # background (no peptide) control set to 1.0;*p<0.05, **p<0.01 vs “no peptide”

CC[C@H](C)[C@H](NC(=O)CNC(=O)[C@H](CCCNC(=N)N)NC(=O)[C@H](CCCCN)NC(=O)[C@H](CCCNC(=N)N)NC(=O)CNC(=O)[C@H](CCCNC(=N)N)NC(=O)[C@H](CO)NC(=O)[C@@H]1CCCN1C(=O)[C@H](CCCCN)NC(=O)[C@H](CS)NC(=O)[C@H](CCC(N)=O)NC(=O)[C@H](CCCCN)NC(=O)[C@H](CCCNC(=N)N)NC(=O)[C@H](CCCCN)NC(=O)[C@H](Cc1ccc(O)cc1)NC(=O)[C@H](Cc1ccccc1)NC(=O)CNC(=O)[C@H](CCCCN)NC(=O)[C@@H](N)CCCNC(=N)N)C(=O)N[C@@H](CS)C(=O)N[C@@H](Cc1c[nH]c2ccccc12)C(=O)O [IM5] (H-RKGFYKRKQCKPSRGRKRGICW-OH; N-terminus and C-terminus assumed)
Percent Flowthrough [1]: 3.6% | Percent retained [1]: 96.4% | binding to PI spot [2]: 0 | binding to PI(3,4,5)P3 spot [2]: 1 | binding to PI(4)P1 spot [2]: 2 | binding to PI(4,5)P2 spot [2]: 3 | fluorescence (iron binding) [3]: 130±77 | fluorescence of labeled IM3 with competing peptide [4]: 40±14 | fluorescence of labeled peptide [5]: 86.7±6.4 | fluorescence ([6]; Calcium): 23.4 ± 0.8** | fluorescence ([6]; Copper): 5.6 ± 0.1** | fluorescence ([6]; Ferrous iron, 400 ng/well): 20.5 ± 1.5** | fluorescence ([6]; Zinc): 23.6 ± 0.1**
